The assay deals with T1, human OX2 receptor (Homo sapiens, UniProt O43614).
T1 construct: expressed in transfected cells
T1 sequence (O43614 1-444): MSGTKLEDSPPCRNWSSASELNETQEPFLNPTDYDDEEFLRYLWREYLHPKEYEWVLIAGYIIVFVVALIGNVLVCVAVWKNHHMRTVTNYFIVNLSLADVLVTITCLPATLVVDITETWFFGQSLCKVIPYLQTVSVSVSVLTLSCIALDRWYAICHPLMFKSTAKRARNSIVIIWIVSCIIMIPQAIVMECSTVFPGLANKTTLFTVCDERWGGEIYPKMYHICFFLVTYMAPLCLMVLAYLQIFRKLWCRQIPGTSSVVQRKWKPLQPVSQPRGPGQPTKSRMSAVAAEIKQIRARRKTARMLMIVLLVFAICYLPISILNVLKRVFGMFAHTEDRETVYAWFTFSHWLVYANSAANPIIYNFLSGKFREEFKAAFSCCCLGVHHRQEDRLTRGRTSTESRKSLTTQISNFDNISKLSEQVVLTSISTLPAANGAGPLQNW
The assay is described as follows: Measurement of orexin type 2 receptor agonist activity (Experimental Example 2; Fluo-4 AM calcium fluorescence, FDSS μCELL). The assay is classed as cell-based. The conditions noted are these: compound at 3 μM; CHO cells expressing human OX2 receptor; DMSO = 0%, 10 nM orexin A (human) = 100%. Here is the method:
In order to obtain cell clones that stably express human orexin type 2 receptor, human orexin type 2 (residues 1-444, NCBI Reference Sequence: AK314279) was constructed in a pcDNA3.1 (+) vector (Invitrogen) to express in mammalian cells. This plasmid DNA was transfected into CHO-K1 cells by electroporation, and stable clones were obtained by limiting dilution using resistance to G418 as a selection marker.
CHO cells in which human OX2 receptor was forcibly expressed were seeded at 10,000 cells/well into a 384-well black transparent bottom plate (BD falcon), and were incubated at 37° C., 5% CO2 for 1 day after incubation at room temperature for 30 minutes. After removing the cell plate medium, assay buffer containing calcium indicator A (HBSS (Thermo Fisher Scientific), 20 mM HEPES (Thermo Fisher Scientific), 0.1% BSA (Sigma-Aldrich), 2.5 μg/mL Fluo-4 AM (Dojin Kagaku), 0.08% Pluronic F127 (Dojin Kagaku), 1.25 mM probenecid (Dojin Kagaku)) was added at 30 μL/well. After incubation in a 5% CO2 incubator at 37° C. for 30 minutes, it was incubated at room temperature for another 30 minutes. Add 10 μL/well of the test compound diluted with assay buffer B (HBSS, 20 mM HEPES, 0.1% BSA), and use FDSS μCELL (Hamamatsu Photonics) to measure the fluorescence value every 1 second for 1 minute, and then every 2 seconds for 1 minute. It was measured for 1 minute and 40 seconds. The amount of fluorescence value when DMSO is added instead of the test compound is defined as 0%, and the amount of fluorescence value when orexin A (human) (Peptide Institute) with a final concentration of 10 nM is added is defined as 100%. The activity (%) of the test compound was calculated. Table 2-1, 2-2, 2-3, and 2-4 show the activity of each compound at a concentration of 3 μM.
As for `CS(=O)(=O)N[C@@H]1[C@@H]2Cc3cccc(c3F)Oc3nc(ncc3Cl)OCC(=O)N2CC1(F)F` [Example 64, N-[(15aS,16R)-7-chloro-17,17,20-trifluoro-1-oxo-1,2,15a,16,17,18-hexahydro-15H-4,8-(azeno)-10,14-(metheno)pyrrolo[2,1-n][1,7,3,15]dioxadiazacyclo-heptadecin-16-yl]methanesulfonamide], the “OX2R agonist activity (3 μM, %)” value came out at 105%.

On to `Cc1ccc2nc1Oc1cc(ccc1F)C[C@H]1[C@@H](NS(C)(=O)=O)C(F)(F)CN1C(=O)NC2` (relative stereo) [Example 86, N-[rel-(15aS,16R)-11,17,17-trifluoro-7-methyl-1-oxo-2,3,15a,16,17,18-hexahydro-1H,15H-4,8-(azeno)-14,10-(metheno)pyrrolo[1,2-j][1,8,10]oxadiazacyclo-heptadecin-16-yl]methanesulfonamide (optical isomer)], for which the “OX2R agonist activity (3 μM, %)” value was 102%.

For the molecule `CCc1ccc2nc1Oc1cccc(c1F)C[C@H]1[C@@H](NS(C)(=O)=O)C(F)(F)CN1C(=O)NC2` [Example 79, N-[(15aS,16R)-7-ethyl-17,17,20-trifluoro-1-oxo-2,3,15a,16,17,18-hexahydro-1H,15H-4,8-(azeno)-14,10-(metheno)pyrrolo[1,2-j][1,8,10]oxadiazacyclo-heptadecin-16-yl]methanesulfonamide], the “OX2R agonist activity (3 μM, %)” value was 102%.

For `CS(=O)(=O)N[C@H]1[C@@H](F)CN2C(=O)NCc3cc(c(Cl)cn3)Oc3cccc(c3F)C[C@@H]12` [Example 44, N-[(15aS,16R,17S)-7-chloro-17,20-difluoro-1-oxo-2,3,15a,16,17,18-hexahydro-1H,15H-4,8:14,10-di(metheno)pyrrolo[1,2-j][1,5,8,10]oxatriazacyclo-heptadecin-16-yl]methanesulfonamide], the “OX2R agonist activity (3 μM, %)” value is listed as 84%.

With `Cc1ccc2nc1Oc1cccc(c1)C[C@H]1[C@@H](NS(C)(=O)=O)CCN1C(=O)N(C)C2` [Example 40, N-[(15aS,16S)-2,7-dimethyl-1-oxo-2,3,15a,16,17,18-hexahydro-1H,15H-4,8-(azeno)-10,14-(metheno)pyrrolo[1,2-j][1,8,10]oxadiazacyclo-heptadecin-16-yl]methanesulfonamide], the “OX2R agonist activity (3 μM, %)” value is listed as 103%.

With `Cc1ccc2nc1Oc1cccc(c1F)C[C@H]1[C@@H](NS(=O)(=O)C(C)C)C(F)(F)CN1C(=O)NC2` [Example 97, N-[(15aS,16R)-17,17,20-trifluoro-7-methyl-1-oxo-2,3,15a,16,17,18-hexahydro-1H,15H-4,8-(azeno)-14,10-(metheno)pyrrolo[1,2-j][1,8,10]oxadiazacyclo-heptadecin-16-yl]propane-2-sulfonamide], the “OX2R agonist activity (3 μM, %)” value was 108%.

For the molecule `Cc1cnc2nc1Oc1cccc(c1F)C[C@H]1[C@@H](NS(C)(=O)=O)C(F)(F)CN1C(=O)CO2` [Example 77, N-[(15aS,16R)-17,17,20-trifluoro-7-methyl-1-oxo-1,2,15a,16,17,18-hexahydro-15H-4,8-(azeno)-10,14-(metheno)pyrrolo[2,1-n][1,7,3,15]dioxadiazacyclo-heptadecin-16-yl]methanesulfonamide], the “OX2R agonist activity (3 μM, %)” value amounted to 104%.

As to `CCS(=O)(=O)N[C@H]1[C@@H](F)CN2C(=O)COc3ccc(Cl)c(n3)Oc3cc(ccc3F)C[C@@H]12` (relative stereo) [Example 91, N-[rel-(15aR,16S,17R)-7-chloro-11,17-difluoro-1-oxo-1,2,15a,16,17,18-hexahydro-15H-4,8-(azeno)-14,10-(metheno)pyrrolo[1,2-d][1,12,4]dioxazacyclohepta-decin-16-yl]ethanesulfonamide (optical isomer)], the “OX2R agonist activity (3 μM, %)” value came to 106%.

As for `CCS(=O)(=O)N[C@@H]1[C@@H]2Cc3cccc(c3F)Oc3nc(ccc3OC)CNC(=O)N2CC1(F)F` [Example 26, N-[(15aS,16R)-17,17,20-trifluoro-7-methoxy-1-oxo-2,3,15a,16,17,18-hexahydro-1H,15H-4,8-(azeno)-10,14-(metheno)pyrrolo[1,2-j][1,8,10]oxadiazacyclo-heptadecin-16-yl]ethanesulfonamide], the “OX2R agonist activity (3 μM, %)” value is 102%.

As for `CS(=O)(=O)N[C@@H]1[C@@H]2Cc3cccc(c3F)COc3nc(ccc3Cl)CNC(=O)N2CC1(F)F` [Example 94, N-[(16aS,17R)-7-chloro-18,18,21-trifluoro-1-oxo-2,3,16a,17,18,19-hexahydro-1H,10H,16H-4,8-(azeno)-15,11-(metheno)pyrrolo[1,2-j][1,8,10]oxadiazacycloocta-decin-17-yl]methanesulfonamide], the “OX2R agonist activity (3 μM, %)” value turned out to be 109%.

As to `CCS(=O)(=O)N[C@H]1CCN2C(=O)NCc3nc(c(F)cc3F)Oc3cccc(c3)C[C@@H]12` [Example 20, N-[(15aS,16S)-5,7-difluoro-1-oxo-2,3,15a,16,17,18-hexahydro-1H,15H-4,8-(azeno)-14,10-(metheno)pyrrolo[1,2-j][1,8,10]oxadiazacyclo-heptadecin-16-yl]ethanesulfonamide], the “OX2R agonist activity (3 μM, %)” value came to 105%.

As to `CCS(=O)(=O)N[C@H]1[C@@H](F)CN2C(=O)COc3ccc(C(F)F)c(n3)Oc3cccc(c3)C[C@@H]12` [Example 87, N-[(15aS,16R,17S)-7-(difluoromethyl)-17-fluoro-1-oxo-1,2,15a,16,17,18-hexahydro-15H-4,8-(azeno)-14,10-(metheno)pyrrolo[1,2-d][1,12,4]dioxazacyclo-heptadecin-16-yl]ethanesulfonamide], the “OX2R agonist activity (3 μM, %)” value was 105%.

As to `CCS(=O)(=O)N[C@@H]1[C@@H]2Cc3cccc(c3F)Oc3nc(cnc3C)OCC(=O)N2CC1(F)F` [Example 81, N-[(15aS,16R)-17,17,20-trifluoro-7-methyl-1-oxo-1,2,15a,16,17,18-hexahydro-15H-4,8-(azeno)-10,14-(metheno)pyrrolo[1,2-j][1,7,4,10]dioxadiazacyclo-heptadecin-16-yl]ethanesulfonamide], the “OX2R agonist activity (3 μM, %)” value was found to be 102%.

In the case of `Cc1ccc2nc1COc1cccc(c1F)C[C@H]1[C@@H](NS(C)(=O)=O)C(F)(F)CN1C(=O)CO2` [Example 66, N-[(16aS,17R)-18,18,21-trifluoro-7-methyl-1-oxo-1,2,16a,17,18,19-hexahydro-9H,16H-4,8-(azeno)-11,15-(metheno)pyrrolo[1,2-d][1,12,4]dioxazacyclo-octadecin-17-yl]methanesulfonamide], the “OX2R agonist activity (3 μM, %)” value is listed as 97%.

Take `CS(=O)(=O)N[C@H]1[C@@H](F)CN2C(=O)NCc3ccc(Cl)c(c3)Oc3cccc(c3F)C[C@@H]12` [Example 12, N-[(15aS,16R,17S)-7-chloro-17,20-difluoro-1-oxo-2,3,15a,16,17,18-hexahydro-1H,15H-4,8:14,10-di(metheno)pyrrolo[1,2-j][1,8,10]oxadiazacyclo-heptadecin-16-yl]methanesulfonamide]: the “OX2R agonist activity (3 μM, %)” value stood at 99%.

Regarding `CS(=O)(=O)N[C@@H]1[C@@H]2Cc3cccc(c3F)Oc3nc(ccc3C3CC3)CNC(=O)N2CC1(F)F` [Example 88, N-[(15aS,16R)-7-cyclopropyl-17,17,20-trifluoro-1-oxo-2,3,15a,16,17,18-hexahydro-1H,15H-4,8-(azeno)-14,10-(metheno)pyrrolo[1,2-j][1,8,10]oxadiazacyclo-heptadecin-16-yl]methanesulfonamide], the “OX2R agonist activity (3 μM, %)” value amounted to 109%.

(Values after patent US20240309016A1, “MACROCYCLIC HETEROCYCLE COMPOUNDS AND USE THEREOF” (TAKEDA PHARMACEUTICAL COMPANY LIMITED, priority 2023, published 2024).)
